For orientation: IC50 means the point on the concentration scale where inhibition reaches its midpoint. Read a low IC50 as greater potency. As usually defined, the EC50 is the concentration giving half of the maximal effect.

Data on 3 compounds can be found in ChEMBL document CHEMBL5357048, “A survey of stapling methods to increase affinity, activity, and stability of ghrelin analogues” (RSC Med Chem, 2024).

SMILES strings stand for the structures.

The target of assay [1] is T1, Growth hormone secretagogue receptor type 1 (Homo sapiens, UniProt Q92847). In words: Displacement of [125I]ghrelin from GHSR1a in HEK293 cells by competitive binding assay. It counts as cell-based.
T1 sequence (Q92847 whole entry): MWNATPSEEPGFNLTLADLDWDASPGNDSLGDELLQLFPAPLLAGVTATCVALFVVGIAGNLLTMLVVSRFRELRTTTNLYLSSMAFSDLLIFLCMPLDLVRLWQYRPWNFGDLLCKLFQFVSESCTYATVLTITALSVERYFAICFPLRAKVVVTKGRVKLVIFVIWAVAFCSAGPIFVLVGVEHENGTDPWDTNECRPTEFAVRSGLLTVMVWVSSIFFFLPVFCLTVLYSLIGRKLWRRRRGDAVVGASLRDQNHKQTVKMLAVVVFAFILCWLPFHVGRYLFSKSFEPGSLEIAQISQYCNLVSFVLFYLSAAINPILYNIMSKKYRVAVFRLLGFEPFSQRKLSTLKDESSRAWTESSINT
In assay [2] the target is T1, Growth hormone secretagogue receptor type 1. Briefly: Agonist activity at eYFP/RLuc-tagged GHSR1a (unknown origin) transfected in HEK293 cells assessed as beta-arrestin 2 recruitment incubated for 20 mins by BRET assay. The class given is functional, cell-based. A general note: Arrestin recruitment assays detect the binding of arrestin to an activated receptor.
For assay [3] the target is unchanged. In words: Displacement of […] [125I]-ghrelin from eYFP-labelled GHSR1a (unknown origin) transfected in HEK293 cells incubated for 20 mins by radioligand binding assay. The class given is cell-based.
Assay [4] shares this target. Briefly: Agonist activity at eYFP/RLuc-tagged GHSR1a (unknown origin) transfected in HEK293 cells assessed as beta-arrestin 1 recruitment incubated for 20 mins by BRET assay. It counts as functional, cell-based.

In assay [1], `CCCCCCCC(=O)OC[C@H](NC(=O)[C@H](CO)NCC(N)=O)C(=O)N[C@@H](Cc1ccccc1)C(=O)N[C@@H](CC(C)C)C(=O)N[C@@H](CO)C(=O)N1CCC[C@H]1C(=O)N[C@@H](CCC(=O)O)C(=O)N[C@@H](Cc1c[nH]cn1)C(=O)N[C@@H](CCC(N)=O)C(=O)N[C@@H](CCCNC(=N)N)C(=O)N[C@H](C(=O)N[C@@H](CCC(N)=O)C(=O)N[C@@H](CCC(N)=O)C(=O)N[C@@H](CCCNC(=N)N)C(=O)N[C@@H](CCCCN)C(=O)N[C@@H](CCC(=O)O)C(=O)N[C@@H](CO)C(=O)N[C@@H](CCCCN)C(=O)N[C@@H](CCCCN)C(N)=O)C(C)C` had an IC50 of 7.9 nM.
On to `CCCCCCCC(=O)OC[C@H](NC(=O)[C@H](CO)NCC(N)=O)C(=O)N[C@@H](Cc1ccccc1)C(=O)N[C@@H](CC(C)C)C(=O)N[C@@H](CO)C(=O)N1CCC[C@H]1C(=O)N[C@@H](CCC(=O)O)C(=O)N[C@@H](Cc1c[nH]cn1)C(=O)N[C@@H](CCC(N)=O)C(=O)N[C@@H](CCCNC(=N)N)C(=O)N[C@@]1(C)CCC/C=C\CCC[C@@](C)(C(=O)N[C@@H](CCC(=O)O)C(=O)N[C@@H](CO)C(=O)N[C@@H](CCCCN)C(=O)N[C@@H](CCCCN)C(=O)O)NC(=O)[C@H](CCCNC(=N)N)NC(=O)[C@H](CCC(N)=O)NC(=O)[C@H](CCC(N)=O)NC1=O`, for which the EC50 in assay [2] was 114 nM; in assay [4], 77.2 nM. Further, the IC50 in assay [3] turned out to be 1.44 nM.
Turning to `CCCCCCCC(=O)OC[C@H](NC(=O)[C@H](CO)NCC(N)=O)C(=O)N[C@@H](Cc1ccccc1)C(=O)N[C@@H](CC(C)C)C(=O)N[C@@H](CO)C(=O)N1CCC[C@H]1C(=O)N[C@@H](CCC(=O)O)C(=O)N[C@@H](Cc1c[nH]cn1)C(=O)N[C@@H](CCC(N)=O)C(=O)N[C@@H](CCCNC(=N)N)C(=O)N[C@H]1CSCc2ccc(cc2)CSC[C@@H](C(=O)N[C@@H](CCC(=O)O)C(=O)N[C@@H](CO)C(=O)N[C@@H](CCCCN)C(=O)N[C@@H](CCCCN)C(=O)O)NC(=O)[C@H](CCCNC(=N)N)NC(=O)[C@H](CCC(N)=O)NC(=O)[C@H](CCC(N)=O)NC1=O`, the figures for the half-maximal effective concentration (EC50) in assay [2] and in assay [4] were 71.6 nM and 91.7 nM, respectively. For the same compound, the IC50 in assay [3] was 4.93 nM.
